# Where a name gives a salt, the structure may show the parent alone. Read-outs that look alike come from different tables or passages of the source.
# Molecular target: human Nav1.8 (Homo sapiens, UniProt Q9Y5Y9)
# Test: SyncroPatch384PE assay (automated patch clamp)
# Type: cell-based
# Settings: human Nav1.8/b3 CHO cells
# [1] = inactivated state block (P2 measurement), read-out: P2 IC50
# [2] = resting state block (P1 measurement), read-out: P1 IC50
# Sequence of human Nav1.8 (Q9Y5Y9 whole entry): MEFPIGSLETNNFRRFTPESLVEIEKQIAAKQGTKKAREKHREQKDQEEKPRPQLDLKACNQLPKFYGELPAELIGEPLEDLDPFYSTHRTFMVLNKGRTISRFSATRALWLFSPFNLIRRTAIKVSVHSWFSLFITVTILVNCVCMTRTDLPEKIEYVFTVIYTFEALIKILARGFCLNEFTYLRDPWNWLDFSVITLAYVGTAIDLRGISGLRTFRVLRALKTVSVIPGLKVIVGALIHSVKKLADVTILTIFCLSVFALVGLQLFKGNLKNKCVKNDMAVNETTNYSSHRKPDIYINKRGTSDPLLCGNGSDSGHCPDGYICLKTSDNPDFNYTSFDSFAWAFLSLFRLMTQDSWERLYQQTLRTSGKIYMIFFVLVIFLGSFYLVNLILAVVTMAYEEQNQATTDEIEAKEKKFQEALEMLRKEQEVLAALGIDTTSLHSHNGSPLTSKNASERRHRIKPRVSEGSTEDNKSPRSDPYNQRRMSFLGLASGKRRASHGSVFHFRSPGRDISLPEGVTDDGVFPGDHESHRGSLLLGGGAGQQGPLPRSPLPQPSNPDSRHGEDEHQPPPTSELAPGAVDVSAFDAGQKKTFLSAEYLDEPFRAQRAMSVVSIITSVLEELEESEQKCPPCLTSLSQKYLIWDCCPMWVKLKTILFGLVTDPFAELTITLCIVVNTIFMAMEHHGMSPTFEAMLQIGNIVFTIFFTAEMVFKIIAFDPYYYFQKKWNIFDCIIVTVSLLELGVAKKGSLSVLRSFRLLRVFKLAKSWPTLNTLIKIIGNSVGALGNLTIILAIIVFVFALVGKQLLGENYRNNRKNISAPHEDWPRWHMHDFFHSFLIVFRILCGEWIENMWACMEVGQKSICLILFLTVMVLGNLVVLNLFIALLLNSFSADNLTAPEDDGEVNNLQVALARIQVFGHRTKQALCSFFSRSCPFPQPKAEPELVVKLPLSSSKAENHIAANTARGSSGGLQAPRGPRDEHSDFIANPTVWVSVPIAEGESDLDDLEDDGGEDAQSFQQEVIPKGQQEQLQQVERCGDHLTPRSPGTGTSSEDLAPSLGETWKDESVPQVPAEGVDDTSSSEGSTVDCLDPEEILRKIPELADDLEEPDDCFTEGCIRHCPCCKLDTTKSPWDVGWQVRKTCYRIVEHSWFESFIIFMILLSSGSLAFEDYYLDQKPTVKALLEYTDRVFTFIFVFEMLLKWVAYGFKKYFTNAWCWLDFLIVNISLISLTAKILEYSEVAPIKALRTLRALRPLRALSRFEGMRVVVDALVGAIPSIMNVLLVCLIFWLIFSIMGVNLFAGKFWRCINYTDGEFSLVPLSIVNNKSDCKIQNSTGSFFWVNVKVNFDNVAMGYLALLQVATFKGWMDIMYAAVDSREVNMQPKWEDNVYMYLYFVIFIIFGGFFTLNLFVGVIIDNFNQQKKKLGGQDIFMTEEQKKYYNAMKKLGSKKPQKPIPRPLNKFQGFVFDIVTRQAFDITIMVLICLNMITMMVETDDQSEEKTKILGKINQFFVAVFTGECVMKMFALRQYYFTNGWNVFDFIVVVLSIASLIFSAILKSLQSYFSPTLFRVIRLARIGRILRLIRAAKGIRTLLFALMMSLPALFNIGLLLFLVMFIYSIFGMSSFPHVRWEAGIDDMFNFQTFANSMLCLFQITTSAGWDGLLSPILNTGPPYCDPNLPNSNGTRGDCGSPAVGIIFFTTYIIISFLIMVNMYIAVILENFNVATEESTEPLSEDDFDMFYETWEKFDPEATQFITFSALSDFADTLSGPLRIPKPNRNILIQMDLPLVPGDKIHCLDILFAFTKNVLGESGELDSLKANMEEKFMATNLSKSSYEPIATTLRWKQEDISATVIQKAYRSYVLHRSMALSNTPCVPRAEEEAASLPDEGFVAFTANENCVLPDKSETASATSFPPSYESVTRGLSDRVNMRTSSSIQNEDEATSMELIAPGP
SMILES,IC50 [1] [µM],IC50 [2] [µM]
"CNCC(=O)N=[S@](C)(=O)c1cccc(NC(=O)c2c(N3CCCC(F)(F)CC3)ncc(-c3ccc(Cl)cc3)c2C)c1 [Example 68, (R)-5-(4-chlorophenyl)-2-(4,4-difluoroazepan-1-yl)-4-methyl-N-(3-(S-methyl-N-(methylglycyl)sulfonimidoyl)phenyl)nicotinamide]",≤ 0.005,≤ 0.005
"Cc1c(-c2cnn(C3CC3)c2)cnc(N2CCCC(F)(F)CC2)c1C(=O)Nc1cccc([S@](C)(=N)=O)c1 [Example 69, (R)-5-(1-cyclopropyl-1H-pyrazol-4-yl)-2-(4,4-difluoroazepan-1-yl)-4-methyl-N-(3-(S-methylsulfonimidoyl)phenyl)nicotinamide]",0.005 to 0.05,0.005 to 0.05
"CNCC(=O)N=[S@](C)(=O)c1cccc(NC(=O)c2c(N3CCCC(F)(F)CC3)ncc(-c3cnn(C4CC4)c3)c2C)c1 [Example 70, (R)-5-(1-cyclopropyl-1H-pyrazol-4-yl)-2-(4,4-difluoroazepan-1-yl)-4-methyl-N-(3-(S-methyl-N-(methylglycyl)sulfonimidoyl)phenyl)nicotinamide]",≤ 0.005,≤ 0.005
"Cc1c(-c2cnn(C)c2)nnc(N2CCCC(F)(F)CC2)c1C(=O)Nc1cccc([S@](C)(=N)=O)c1 [Example 71, (R)-3-(4,4-difluoroazepan-1-yl)-5-methyl-6-(1-methyl-1H-pyrazol-4-yl)-N-(3-(S-methylsulfonimidoyl)phenyl)pyridazine-4-carboxamide]",> 0.2,> 0.2
"CNCC(=O)N=[S@](C)(=O)c1cccc(NC(=O)c2c(N3CCCC(F)(F)CC3)nnc(-c3cnn(C)c3)c2C)c1 [Example 72, (R)-3-(4,4-difluoroazepan-1-yl)-5-methyl-6-(1-methyl-1H-pyrazol-4-yl)-N-(3-(S-methyl-N-(methylglycyl)sulfonimidoyl)phenyl)pyridazine-4-carboxamide]",0.05 to 0.1,0.05 to 0.1
"Cc1c(C#N)c(C(F)(F)F)nc(N2CCCC(F)(F)CC2)c1C(=O)Nc1cccc([S@@](C)(=O)=NC(=O)C2(N)CCC2)c1 [Example 73, (R)-N-(3-(N-(1-aminocyclobutane-1-carbonyl)-S-methylsulfonimidoyl)phenyl)-5-cyano-2-(4,4-difluoroazepan-1-yl)-4-methyl-6-(trifluoromethyl)nicotinamide]",0.005 to 0.05,0.05 to 0.1
"Cc1c(-c2cnn(C)c2)cnc(N2CCCC(F)(F)CC2)c1C(=O)Nc1cccc([S@@](C)(=O)=NC(=O)CN)c1 [Example 74, (R)-2-(4,4-difluoroazepan-1-yl)-N-(3-(N-glycyl-S-methylsulfonimidoyl)phenyl)-4-methyl-5-(1-methyl-1H-pyrazol-4-yl)nicotinamide]",0.005 to 0.05,0.005 to 0.05
"Cc1c(-c2cnn(C)c2)cnc(N2CCCC(F)(F)CC2)c1C(=O)Nc1cccc([S@@](C)(=O)=NC(=O)[C@@H](C)N)c1 [Example 75, N-(3-((R)-N-(D-alanyl)-S-methylsulfonimidoyl)phenyl)-2-(4,4-difluoroazepan-1-yl)-4-methyl-5-(1-methyl-1H-pyrazol-4-yl)nicotinamide]",0.005 to 0.05,0.005 to 0.05
"Cc1c(-c2cnn(C)c2)cnc(N2CCCC(F)(F)CC2)c1C(=O)Nc1cccc([S@@](C)(=O)=NC(=O)[C@H](C)N)c1 [Example 76, N-(3-((R)-N-(L-alanyl)-S-methylsulfonimidoyl)phenyl)-2-(4,4-difluoroazepan-1-yl)-4-methyl-5-(1-methyl-1H-pyrazol-4-yl)nicotinamide formate]",≤ 0.005,≤ 0.005
"C[S@@](=N)(=O)c1cccc(NC(=O)c2cc(Cl)c(C(F)(F)F)cc2N2CCCC(F)(F)CC2)c1 [Example 77, (R)-5-chloro-2-(4,4-difluoroazepan-1-yl)-N-(3-(S-methylsulfonimidoyl)phenyl)-4-(trifluoromethyl)benzamide]",≤ 0.005,≤ 0.005
"Cc1c(-c2cnn(C)c2)ccc(N2CCCC(F)(F)CC2)c1C(=O)Nc1cccc([S@](C)(=N)=O)c1 [Example 78, (R)-6-(4,4-difluoroazepan-1-yl)-2-methyl-3-(1-methyl-1H-pyrazol-4-yl)-N-(3-(S-methylsulfonimidoyl)phenyl)benzamide]",> 0.2,> 0.2
"Cc1ccsc1-c1nnc(N2CCCCCC2)c(C(=O)Nc2cccc(S(C)(=N)=O)c2)c1C (stereo not shown) [Example 79, 3-(Azepan-1-yl)-5-methyl-N-(3-(S-methylsulfonimidoyl)phenyl)-6-(3-methylthiophen-2-yl)pyridazine-4-carboxamide]",> 0.2,> 0.2
"CS(=N)(=O)c1cccc(NC(=O)c2ccc(CC3CC3)nc2N2CCC3(CC2)CC3)c1 (stereo not shown) [Example 80, 6-(cyclopropylmethyl)-N-(3-(S-methylsulfonimidoyl)phenyl)-2-(6-azaspiro[2.5]octan-6-yl)nicotinamide]",0.005 to 0.05,0.005 to 0.05
"Cc1c(-c2cnn(C)c2)cnc(N2CCCC(F)(F)CC2)c1C(=O)Nc1cccc(S(C)(=N)=O)c1 (stereo not shown) [Example 83, 2-(4,4-difluoroazepan-1-yl)-4-methyl-5-(1-methyl-1H-pyrazol-4-yl)-N-(3-(S-methylsulfonimidoyl)phenyl)nicotinamide]",0.05 to 0.1,0.05 to 0.1
"Cc1c(N2CC3(COC3)C2)cnc(N2CCCC(F)(F)CC2)c1C(=O)Nc1cccc([S@@](C)(=N)=O)c1 [Example 90, (S)-2-(4,4-difluoroazepan-1-yl)-4-methyl-N-(3-(S-methylsulfonimidoyl)phenyl)-5-(2-oxa-6-azaspiro[3.3]heptan-6-yl)nicotinamide]",0.1 to 0.2,0.1 to 0.2
"Cc1c(C(F)(F)F)nnc(N2CCC3(CC2)CC3)c1C(=O)Nc1cccc(S(C)(=N)=O)c1 (stereo not shown) [Example 94, 5-methyl-N-(3-(S-methylsulfonimidoyl)phenyl)-3-(6-azaspiro[2.5]octan-6-yl)-6-(trifluoromethyl)pyridazine-4-carboxamide]",> 0.2,> 0.2

# Second part, the compound after the results:
IC50 [1] [µM],IC50 [2] [µM],SMILES
≤ 0.005,≤ 0.005,"Cc1c(-c2ccc(Cl)cc2)cnc(N2CCCC(F)(F)CC2)c1C(=O)Nc1cccc([S@](C)(=N)=O)c1 [Example 67, (R)-5-(4-chlorophenyl)-2-(4,4-difluoroazepan-1-yl)-4-methyl-N-(3-(S-methylsulfonimidoyl)phenyl)nicotinamide]"
≤ 0.005,≤ 0.005,Cc1c(-c2ccc(C#N)cc2)cnc(N2CCCC(F)(F)CC2)c1C(=O)Nc1cccc(S(C)(=N)=O)c1 (stereo not shown) [Example 81]
≤ 0.005,≤ 0.005,"Cc1c(-c2cccc(F)c2)cnc(N2CCCC(F)(F)CC2)c1C(=O)Nc1cccc(S(C)(=N)=O)c1 (stereo not shown) [Example 82, 2-(4,4-difluoroazepan-1-yl)-5-(3-fluorophenyl)-4-methyl-N-(3-(S-methylsulfonimidoyl)phenyl)nicotinamide]"
0.005 to 0.05,0.05 to 0.1,"Cc1c(-c2cccnc2)cnc(N2CCCC(F)(F)CC2)c1C(=O)Nc1cccc(S(C)(=N)=O)c1 (stereo not shown) [Example 84, 6-(4,4-difluoroazepan-1-yl)-4-methyl-N-(3-(S-methylsulfonimidoyl)phenyl)-[3,3bipyridine]-5-carboxamide]"
0.05 to 0.1,0.05 to 0.1,"Cc1c(-c2ccncc2)cnc(N2CCCC(F)(F)CC2)c1C(=O)Nc1cccc(S(C)(=N)=O)c1 (stereo not shown) [Example 85, 6-(4,4-difluoroazepan-1-yl)-4-methyl-N-(3-(S-methylsulfonimidoyl)phenyl)-[3,4bipyridine]-5-carboxamide]"
≤ 0.005,≤ 0.005,"Cc1c(Br)cnc(N2CCCC(F)(F)CC2)c1C(=O)Nc1cccc(S(C)(=N)=O)c1 (stereo not shown) [Example 86, 5-bromo-2-(4,4-difluoroazepan-1-yl)-4-methyl-N-(3-(S-methylsulfonimidoyl)phenyl)nicotinamide]"
≤ 0.005,≤ 0.005,"Cc1c(-c2ccc(C(F)F)cc2)cnc(N2CCCC(F)(F)CC2)c1C(=O)Nc1cccc(S(C)(=N)=O)c1 (stereo not shown) [Example 87, 2-(4,4-difluoroazepan-1-yl)-5-(4-(difluoromethyl)phenyl)-4-methyl-N-(3-(S-methylsulfonimidoyl)phenyl)nicotinamide]"
≤ 0.005,≤ 0.005,"Cc1c(-c2ccc(F)cc2)cnc(N2CCCC(F)(F)CC2)c1C(=O)Nc1cccc(S(C)(=N)=O)c1 (stereo not shown) [Example 88, 2-(4,4-difluoroazepan-1-yl)-5-(4-fluorophenyl)-4-methyl-N-(3-(S-methylsulfonimidoyl)phenyl)nicotinamide]"
0.1 to 0.2,0.1 to 0.2,"Cc1c(-c2ccn(C)n2)cnc(N2CCCC(F)(F)CC2)c1C(=O)Nc1cccc(S(C)(=N)=O)c1 (stereo not shown) [Example 89, 2-(4,4-difluoroazepan-1-yl)-4-methyl-5-(1-methyl-1H-pyrazol-3-yl)-N-(3-(S-methylsulfonimidoyl)phenyl)nicotinamide]"
0.005 to 0.05,0.005 to 0.05,"Cc1c(-c2cccc(C#N)c2)cnc(N2CCCC(F)(F)CC2)c1C(=O)Nc1cccc(S(C)(=N)=O)c1 (stereo not shown) [Example 91, 5-(3-cyanophenyl)-2-(4,4-difluoroazepan-1-yl)-4-methyl-N-(3-(S-methylsulfonimidoyl)phenyl)nicotinamide]"
≤ 0.005,≤ 0.005,"Cc1c(-c2ccccc2F)cnc(N2CCCC(F)(F)CC2)c1C(=O)Nc1cccc(S(C)(=N)=O)c1 (stereo not shown) [Example 92, 2-(4,4-difluoroazepan-1-yl)-5-(2-fluorophenyl)-4-methyl-N-(3-(S-methylsulfonimidoyl)phenyl)nicotinamide]"
≤ 0.005,≤ 0.005,"COc1ccc(-c2cnc(N3CCCC(F)(F)CC3)c(C(=O)Nc3cccc(S(C)(=N)=O)c3)c2C)cc1 (stereo not shown) [Example 93, 2-(4,4-difluoroazepan-1-yl)-5-(4-methoxyphenyl)-4-methyl-N-(3-(S-methylsulfonimidoyl)phenyl)nicotinamide]"
≤ 0.005,≤ 0.005,"Cc1c(Cl)cnc(N2CCCC(F)(F)CC2)c1C(=O)Nc1cccc(S(C)(=N)=O)c1 (stereo not shown) [Example 95, 5-chloro-2-(4,4-difluoroazepan-1-yl)-4-methyl-N-(3-(S-methylsulfonimidoyl)phenyl)nicotinamide]"
